Consider three compounds from patent US20080227792A1, “3,4-Dihydro-1H-Isoquinoline-2-Carboxylic Acid 5-Aminopyridin-2-Yl Esters” (Novo Nordisk A/S, priority 2005, published 2008).

Data set [1] concerns the target T1, hormone sensitive lipase (HSL) (Homo sapiens, UniProt Q05469).
T1 construct: made in house
T1 sequence (Q05469 1-1076): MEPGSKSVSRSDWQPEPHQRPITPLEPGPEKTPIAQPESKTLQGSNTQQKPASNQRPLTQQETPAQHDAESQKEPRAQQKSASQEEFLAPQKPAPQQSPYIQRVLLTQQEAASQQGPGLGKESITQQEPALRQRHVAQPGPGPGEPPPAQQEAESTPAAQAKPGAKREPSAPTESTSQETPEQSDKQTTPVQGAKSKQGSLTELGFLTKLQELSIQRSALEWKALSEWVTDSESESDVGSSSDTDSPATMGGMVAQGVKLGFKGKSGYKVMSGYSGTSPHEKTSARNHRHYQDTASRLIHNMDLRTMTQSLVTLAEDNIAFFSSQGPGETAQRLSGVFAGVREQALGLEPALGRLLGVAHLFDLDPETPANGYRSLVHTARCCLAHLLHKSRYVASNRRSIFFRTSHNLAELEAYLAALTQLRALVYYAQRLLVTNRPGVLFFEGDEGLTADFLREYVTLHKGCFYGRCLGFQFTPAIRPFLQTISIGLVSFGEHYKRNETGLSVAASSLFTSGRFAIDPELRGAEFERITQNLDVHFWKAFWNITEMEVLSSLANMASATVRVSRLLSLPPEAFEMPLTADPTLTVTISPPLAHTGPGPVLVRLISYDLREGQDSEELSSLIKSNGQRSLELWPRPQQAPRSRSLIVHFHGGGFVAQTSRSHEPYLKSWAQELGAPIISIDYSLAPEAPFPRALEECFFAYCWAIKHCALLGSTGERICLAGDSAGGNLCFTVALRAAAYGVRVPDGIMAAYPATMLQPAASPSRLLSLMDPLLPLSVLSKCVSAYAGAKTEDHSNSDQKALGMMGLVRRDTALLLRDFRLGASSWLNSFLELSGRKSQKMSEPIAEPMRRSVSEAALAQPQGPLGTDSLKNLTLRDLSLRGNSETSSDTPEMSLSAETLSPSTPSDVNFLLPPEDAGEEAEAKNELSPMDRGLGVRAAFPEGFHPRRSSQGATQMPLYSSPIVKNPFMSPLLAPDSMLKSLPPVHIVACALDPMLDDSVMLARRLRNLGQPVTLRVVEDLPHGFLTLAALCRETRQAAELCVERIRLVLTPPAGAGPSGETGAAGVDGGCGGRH
Briefly: 3190.2: Assay for determination of IC50 value for the inhibition of hormone sensitive lipase. The class given is biochemical. Conditions: fluorochrome-labeled triacylglyceride substrate; 30 min pre-incubation at 25° C., 120 min incubation at 37° C.; 4PL fit. An excerpt: Materials. The Hormone-sensitive lipase was provided by Dr. Cecilia Holm, from Lund University Sweden or produced and purified by Novo Nordisk (NN) using the reagents and protocols used by Dr. Holm. The substrates used are: ^3H-labeled triolein (TO) from Amersham, Buckinghamshire, U.K. cat o. TRA191; 5-20 Ci/mmol dissolved in toluene, triolein (Sigma, Cat. No. T-1740), fluorochrome-labeled triacylglyceride (cis-octadec-9-enoic acid 2-[12-(7-nitrobenzo[1,2,5]oxadiazol-4-ylamino)-dodecanoyloxy]-1-cis-octadec-9-enoyloxymethylethyl ester) prepared by Novo Nordisk (NN) by conventional methods, and 1,3-(di[^3H]-stearin), 2-(PEG-Biotin)glycerol prepared in collaboration with Amersham Pharmacia Biotech, UK and described in WO 01/073442. Phosphatidyl choline (PC) and phosphatidyl inositol (PI) are from Sigma (St Luis Mo. cat. Nos. P-3556 and P-5954, respectively). All other reagents are of commercial grade and obtained from various commercial sources.
3190.2: Assay for determination of IC50 value for the inhibition of hormone sensitive lipase by compound. Standard concentrations of compound are 100 μM and 5-fold dilutions (initial concentration corresponding to 10 μM final concentration and 5-fold).
A lipid emulsion with fluorochrome-labeled triacylglyceride and phospholipid is used as substrate with a standard concentration of highly purified HSL (12 μg/mL initial concentration corresponding to 600 ng/mL final concentration). BSA is added as product acceptor. The transfer of the fluorochrome from the lipid phase to the water (BSA) phase changes the fluorescent properties of the fluorochrome. The changes can be monitored on a fluorimeter with an excitation wavelength of 450 nm and an emission wavelength of 545 nm.
Compound and HSL (20 μL compound, 10 μL enzyme and 70 μL PED-BSA buffer) is pre-incubated for 30 min at 25° C. before addition of substrate (100 μL). Amount of formed product is measured after 120 min incubation at 37° C.
Results are given as IC50 values after 4PL fit of obtained activity data.

Molecules are shown by their SMILES.

As a reminder, the IC50 is the point on the concentration scale where inhibition reaches its midpoint. One may read the melting point as the temperature, or range, at which the solid turns liquid. With `CC1(C)CC(=O)N(c2ccc(OC(=O)N3CCc4ccccc4C3)nc2)C(=O)C1` [Example 1, 3,4-Dihydro-1H-isoquinoline-2-carboxylic acid 4,4-dimethyl-2,6-dioxo-3,4,5,6-tetrahydro-2H-[1,3′]bi-pyridinyl-6′-yl ester], the melting point was 156 to 158 °C. This compound showed an IC50 in data set [1] of 400 nM. `O=C(Oc1ccc(N2C(=O)CC3(CCCC3)CC2=O)cn1)N1CCc2ccccc2C1` [Example 3, 3,4-Dihydro-1H-isoquinoline-2-carboxylic acid 5-(7,9-dioxo-8-azaspiro[4.5]dec-8-yl)pyridin-2-yl ester] registered an IC50 in data set [1] of 40 nM. Consider `O=C(Oc1ccc(NC2=NC3(CCCC3)CS2)cn1)N1CCc2ccccc2C1` [Example 4, 3,4-Dihydro-1H-isoquinoline-2-carboxylic acid 5-(3-thia-1-azaspiro[4.4]non-1-en-2-ylamino)-pyridin-2-yl ester], for which the IC50 in data set [1] was determined as 400 nM.
